Assay results as given in PMC5061470, “Promiscuous targeting of bromodomains by bromosporine identifies BET proteins as master regulators of primary transcription response in leukemia” (Science Advances, 2016).
pIC50: −log10 of the molar value.

Assays:
Assay type in all cases: cell-based, human
[1] = system: KASUMI-1; assay: cells; details: read-out: IC50, cell proliferation
[2] = system: K562
[3] = system: MV4;11
[4] = system: K562; remark: listed apart in the source
[5] = system: MV4;11; assay: cells; details: read-out: IC50, cell proliferation
[6] = system: OCI-AML3; assay: cells; details: read-out: IC50, cell proliferation
[7] = system: K562; assay: Genome-wide expression analysis / MetaCore, GSEA; details: K562, 6-hour treatment, 500 nM
[8] = system: MV4;11; assay: Genome-wide expression analysis / MetaCore, GSEA; details: MV4;11, 6-hour treatment, 500 nM

Row | Compound | pIC50 [1] | effect on cell proliferation [2] | effect on cell cycle [3] | effect on cell cycle [4] | pIC50 [5] | pIC50 [6] | effect on gene expression [7] | effect on gene expression [8]
1 | (+)-JQ1 [reference compound] | 7.37 | No significant effect | distinct G1 arrest with reduced S-phase populations | little effect on cell cycle | 7.10 | 7.31 | – | –
2 | CCCOc1ccn2c(C(C)=O)cc(-c3ccccc3S(C)(=O)=O)c2c1 [GSK2801] | – | – | – | – | – | – | no significant effect | no significant effect
